Results from patent US9556187B2, “Substituted pyrrolo[3′,2′:5,6]pyrido[4,3-d]pyrimidines and JAK inhibitors comprising the same” (priority 2011, dated 2017).

Columns and labels:
Format in all cases: biochemical
[1] = molecular target: T1, JAK1 (Homo sapiens (Human), UniProt P23458); assay: Enzyme assay (LANCE Ultra ULight-JAK1 Peptide), JAK1; conditions: ATP 100 μM
[2] = molecular target: T2, JAK2 (Homo sapiens (Human), UniProt O60674); assay: Enzyme assay (LANCE Ultra ULight-JAK1 Peptide), JAK2; conditions: ATP 100 μM
[3] = molecular target: JAK3 (Homo sapiens (Human), UniProt P52333); assay: Enzyme assay, JAK3 (Assay Example^b 1)
Chain of JAK3 (P52333 whole entry): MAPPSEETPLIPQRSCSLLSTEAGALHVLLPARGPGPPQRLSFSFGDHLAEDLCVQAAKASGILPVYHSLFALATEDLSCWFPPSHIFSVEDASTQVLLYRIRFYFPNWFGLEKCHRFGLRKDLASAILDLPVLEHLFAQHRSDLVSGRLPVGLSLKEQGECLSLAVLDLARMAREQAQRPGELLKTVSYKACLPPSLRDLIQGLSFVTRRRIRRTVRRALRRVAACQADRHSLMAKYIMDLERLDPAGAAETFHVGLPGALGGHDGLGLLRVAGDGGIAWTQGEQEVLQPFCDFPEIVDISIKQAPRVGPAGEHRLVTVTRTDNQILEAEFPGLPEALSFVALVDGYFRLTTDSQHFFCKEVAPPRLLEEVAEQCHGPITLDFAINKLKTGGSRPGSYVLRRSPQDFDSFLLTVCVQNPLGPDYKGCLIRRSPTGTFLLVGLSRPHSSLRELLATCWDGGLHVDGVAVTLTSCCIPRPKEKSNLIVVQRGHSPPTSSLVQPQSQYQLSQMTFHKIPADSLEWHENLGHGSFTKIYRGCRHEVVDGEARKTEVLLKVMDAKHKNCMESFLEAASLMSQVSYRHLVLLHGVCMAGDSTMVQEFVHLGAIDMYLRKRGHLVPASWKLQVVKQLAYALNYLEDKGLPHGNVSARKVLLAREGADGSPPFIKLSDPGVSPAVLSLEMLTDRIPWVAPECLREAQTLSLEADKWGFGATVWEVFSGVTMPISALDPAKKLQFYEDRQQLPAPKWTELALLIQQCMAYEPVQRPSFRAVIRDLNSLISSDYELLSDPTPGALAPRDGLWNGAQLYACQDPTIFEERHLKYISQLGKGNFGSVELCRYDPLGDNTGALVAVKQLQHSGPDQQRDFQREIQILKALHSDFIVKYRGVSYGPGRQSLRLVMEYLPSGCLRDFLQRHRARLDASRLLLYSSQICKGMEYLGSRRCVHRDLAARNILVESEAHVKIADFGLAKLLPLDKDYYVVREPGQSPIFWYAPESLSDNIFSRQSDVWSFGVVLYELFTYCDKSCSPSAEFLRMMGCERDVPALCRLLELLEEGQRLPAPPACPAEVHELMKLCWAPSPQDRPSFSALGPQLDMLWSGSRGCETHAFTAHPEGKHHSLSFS
Description: (§1) JAK1, JAK2, JAK3 and Tyk2 were purchased from Carna Biosciences, Inc. As the substrate, LANCE Ultra ULight-JAK1 Peptide (manufactured by PerkinElmer Co., Ltd. (PE)) was used. Dilute solutions of compounds and enzymes in assay buffer (50 mM HEPES pH7.5, 1 mM EGTA, 1 mM MgCl2, 2 mM DTT, 0.01% Tween20) were dispensed into wells of a 384-well black plate. After 5 minutes of preincubation, dilute solutions of the substrate and ATP (adenosine triphosphate) were added at a final concentration of 100 μM, and the plate was incubated at room temperature for 2 hours. After addition of a termination reagent containing EDTA (ehylenediamine tetraacetic acid) at a final concentration of 10 mM, LANCE Eu-W1024 Anti-phosphotyrosine (PT66) (manufactured by PE) was added, and after 1 hour of incubation, the fluorescences were measured with ARVO-HTS. From the plot of logarithm of a compound concentration and inhibitory activity, the IC50 was calculated.

[4] = molecular target: T2, JAK2; assay: Enzyme assay, JAK2 (Assay Example^b 1); conditions: ATP 100 μM
Description: as §1

[5] = molecular target: T3, Tyk2 (Homo sapiens (Human), UniProt P29597); assay: Enzyme assay, Tyk2 (Assay Example^b 1); conditions: ATP 100 μM
T3 sequence (P29597 whole entry): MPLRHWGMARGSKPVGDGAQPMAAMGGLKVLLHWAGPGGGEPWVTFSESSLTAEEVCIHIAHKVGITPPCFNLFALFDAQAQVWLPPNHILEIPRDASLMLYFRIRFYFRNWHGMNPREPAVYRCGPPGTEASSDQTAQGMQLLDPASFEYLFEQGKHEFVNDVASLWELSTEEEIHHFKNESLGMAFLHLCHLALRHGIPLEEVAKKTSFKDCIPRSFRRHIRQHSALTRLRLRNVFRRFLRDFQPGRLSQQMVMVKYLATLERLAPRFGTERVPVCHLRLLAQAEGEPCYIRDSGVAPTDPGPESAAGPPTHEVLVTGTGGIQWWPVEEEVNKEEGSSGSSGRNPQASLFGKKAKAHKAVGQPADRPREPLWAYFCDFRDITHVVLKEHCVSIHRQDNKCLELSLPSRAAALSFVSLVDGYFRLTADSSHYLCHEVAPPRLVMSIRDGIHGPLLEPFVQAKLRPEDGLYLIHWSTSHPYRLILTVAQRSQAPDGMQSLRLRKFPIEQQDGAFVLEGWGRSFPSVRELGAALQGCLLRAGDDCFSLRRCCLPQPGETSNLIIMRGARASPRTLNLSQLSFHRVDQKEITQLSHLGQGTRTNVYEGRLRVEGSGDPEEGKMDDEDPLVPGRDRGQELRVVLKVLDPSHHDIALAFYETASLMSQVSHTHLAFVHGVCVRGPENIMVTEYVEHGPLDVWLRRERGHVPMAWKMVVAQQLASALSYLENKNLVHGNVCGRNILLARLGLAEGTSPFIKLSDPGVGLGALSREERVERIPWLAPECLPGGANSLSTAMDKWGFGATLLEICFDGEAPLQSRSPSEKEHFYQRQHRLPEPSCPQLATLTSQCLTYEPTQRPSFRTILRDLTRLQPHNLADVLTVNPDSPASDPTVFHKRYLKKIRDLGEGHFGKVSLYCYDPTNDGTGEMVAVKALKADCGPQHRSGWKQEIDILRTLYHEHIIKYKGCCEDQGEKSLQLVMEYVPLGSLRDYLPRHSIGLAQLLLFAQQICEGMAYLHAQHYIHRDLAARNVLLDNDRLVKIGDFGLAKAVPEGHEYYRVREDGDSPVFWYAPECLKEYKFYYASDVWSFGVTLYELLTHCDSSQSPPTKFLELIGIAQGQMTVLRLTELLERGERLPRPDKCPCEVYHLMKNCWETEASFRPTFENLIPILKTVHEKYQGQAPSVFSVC
Description: as §1

[6] = molecular target: T3, Tyk2; assay: Enzyme assay (LANCE Ultra ULight-JAK1 Peptide), Tyk2; conditions: ATP 100 μM
[7] = molecular target: T1, JAK1; assay: Enzyme assay, JAK1 (Assay Example^b 1); conditions: ATP 100 μM
Description: as §1

T1 sequence (P23458 whole entry): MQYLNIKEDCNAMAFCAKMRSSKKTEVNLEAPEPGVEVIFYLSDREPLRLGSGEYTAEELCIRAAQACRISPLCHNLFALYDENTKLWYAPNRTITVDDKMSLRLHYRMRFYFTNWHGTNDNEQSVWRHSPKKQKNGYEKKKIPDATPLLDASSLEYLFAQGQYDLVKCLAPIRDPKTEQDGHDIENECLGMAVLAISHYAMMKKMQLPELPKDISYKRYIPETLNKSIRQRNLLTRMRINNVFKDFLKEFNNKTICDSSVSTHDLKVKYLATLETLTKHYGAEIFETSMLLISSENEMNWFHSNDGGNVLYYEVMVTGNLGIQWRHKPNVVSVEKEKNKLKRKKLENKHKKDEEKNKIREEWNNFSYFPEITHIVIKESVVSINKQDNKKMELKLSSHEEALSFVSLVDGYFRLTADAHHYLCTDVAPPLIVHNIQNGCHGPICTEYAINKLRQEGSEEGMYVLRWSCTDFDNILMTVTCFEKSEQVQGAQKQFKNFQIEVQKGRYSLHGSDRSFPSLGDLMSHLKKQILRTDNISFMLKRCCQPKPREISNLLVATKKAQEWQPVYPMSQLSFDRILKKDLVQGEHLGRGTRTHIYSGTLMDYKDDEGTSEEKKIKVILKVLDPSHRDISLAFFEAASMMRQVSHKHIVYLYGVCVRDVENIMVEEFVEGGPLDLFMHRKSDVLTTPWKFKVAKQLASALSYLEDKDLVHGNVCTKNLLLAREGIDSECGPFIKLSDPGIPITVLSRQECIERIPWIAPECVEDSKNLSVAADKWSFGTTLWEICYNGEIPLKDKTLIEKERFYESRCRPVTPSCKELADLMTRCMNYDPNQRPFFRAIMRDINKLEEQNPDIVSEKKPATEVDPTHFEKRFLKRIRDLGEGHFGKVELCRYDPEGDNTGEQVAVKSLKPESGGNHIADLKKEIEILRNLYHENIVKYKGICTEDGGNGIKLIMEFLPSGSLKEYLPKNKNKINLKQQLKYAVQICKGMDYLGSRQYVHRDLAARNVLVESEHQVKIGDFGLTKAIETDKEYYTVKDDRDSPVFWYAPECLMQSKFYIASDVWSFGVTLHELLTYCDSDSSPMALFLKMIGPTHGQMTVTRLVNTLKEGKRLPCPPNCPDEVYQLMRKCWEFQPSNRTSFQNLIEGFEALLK

Compound	IC50 ([1]; Synthetic Examples^a) [µM]	IC50 ([2]; Synthetic Examples^a) [µM]	IC50 [3] [nM]	also measured
CC(c1ccccc1)N1CCC(c2nnn3cnc4[nH]ccc4c23)CC1 (racemic) [Ex 245]	0.017	0.062		
C[C@@H]1CCN(Cc2cccc(F)c2F)C[C@@H]1n1ccc(=O)c2cnc3[nH]ccc3c21 (racemic) [Synthetic Example^b 6a, rac-1-[(3R,4R)-1-(2,3-Difluorobenzyl)-4-methylpiperidin-3-yl]-1H-pyrrolo[2,3-h][1,6]naphthyridin-4(7H)-one]			31	
C[C@@H]1CCN(C)C[C@@H]1n1ccc(=O)c2cnc3[nH]ccc3c21 (racemic) [Synthetic Example^b 6b, rac-1-[(3R,4R)-1,4-Dimethylpiperidin-3-yl]-1H-pyrrolo[2,3-h][1,6]naphthyridin-4(7H)-one]			250	IC50 [4]: 0.38 µM; IC50 [5]: 3.9 µM
CC1(C)CCC(c2nnn3cnc4[nH]ccc4c23)CC1 [Ex 64]				IC50 [6]: 0.31 µM; IC50 [1]: 0.033 µM; IC50 [2]: 0.12 µM; IC50 [7]: 0.012 µM
c1ccc2sc(CN3CCC(c4nnn5cnc6[nH]ccc6c45)CC3)nc2c1 [Ex 232]	0.0053	0.033		IC50 ([6]; Synthetic Examples^a): 0.74 µM
Brc1nc(CN2CCC(c3nnn4cnc5[nH]ccc5c34)CC2)sc1Br [Ex 233]	0.021	0.071		
